System: SIVmac239
Experiment: Multi-round viral replication assay in SupT1-CCR5 cells, SIVmac239
Type: cell-based, SIV
Method: Infectious stocks of stHIV-A19,[23] HIV-1 NL4-3, and SIVmac239 were produced in HEK-293T (RRID: CVCL_1926) cells transfected with full-length viral genome plasmids using the TransIT HEK-293 transfection reagent (Mirus Bio) according to the manufacturer’s instructions. Virus stock infectious titres were determined on TZM-bl reporter cells (RRID: CVCL_B478) as previously described.[26] For experiments using SupT1-CCR5 target cells (RRID: CVCL_X633),[27] cultures were maintained in RPMI 1640 medium supplemented with 10% foetal bovine serum (FBS), 2 mM glutamine, 100 U/ml penicillin, and 100 μg/ml streptomycin. […] Cells were then washed three times to remove input virus, counted, and cultured in triplicate in growth media containing serial threefold dilutions of LEN or no LEN (control). […] Culture supernatants were collected 7 days post-inoculation, clarified by centrifugation, and stored at −80 °C for later quantification of vRNA by quantitative reverse transcription polymerase chain reaction (qRT-PCR). […] The stHIV-A19 stock was quantified with a SYBR Green-based qPCR-based product-enhanced RT (PERT) assay using a purified reverse transcriptase (RT) protein standard, as previously described.[28] […] After 7 days, the virus in culture supernatants was quantified using the PERT assay. […]

CC(C)(C#Cc1ccc(-c2ccc(Cl)c3c(NS(C)(=O)=O)nn(CC(F)(F)F)c23)c([C@H](Cc2cc(F)cc(F)c2)NC(=O)Cn2nc(C(F)(F)F)c3c2C(F)(F)[C@@H]2C[C@H]32)n1)S(C)(=O)=O [LEN, Lenacapavir]
reduced potency against SIVmac239 compared with HIV-1 NL4-3 and stHIV-A19: approximately 6 fold | EC50 (Simian immunodeficiency virus, 168 h, supernatant vRNA 7 days post-infection, mean ± SD of three independent experiments, read-out: mean EC50 against SIVmac239): 0.502 nM
